Measurements reported in ChEMBL document CHEMBL1201862, “PubChem BioAssay data set” (2004).
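Exposure lasted 48 hours, with cells grown in 96-well plates and compounds tested at five concentrations. At the GI50, growth is halved.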 Activity calls are given as the source filed them. No stated cut-off is given here; in the data, active = GI50 up to about 1.1 µM and inactive = higher.

What was measured:
Experiment in all cases: growth of human tumour cells (NCI), 48 h
NCI-H226 = tested on: NCI-H226
786-0 = tested on: 786-0
HOP-62 = tested on: HOP-62
CAKI-1 = tested on: CAKI-1
HT-29 = tested on: HT-29
U-251 = tested on: U-251
OVCAR-3 = tested on: OVCAR-3
NCI-H23 = tested on: NCI-H23
A498 = tested on: A498
NCI/ADR-RES = tested on: NCI/ADR-RES
Malme-3M = tested on: Malme-3M
SK-OV-3 = tested on: SK-OV-3
EKVX = tested on: EKVX
MDA-MB-435 = tested on: MDA-MB-435
OVCAR-4 = tested on: OVCAR-4
UACC-62 = tested on: UACC-62
LOX IMVI = tested on: LOX IMVI
SNB-19 = tested on: SNB-19
HCC 2998 = tested on: HCC 2998

Measured: GI50

c1ccc(NN(Cc2cnccn2)c2ccccc2)cc1
inactive: NCI-H226 80.2 µM | 786-0 > 100 µM | HOP-62 > 100 µM | CAKI-1 > 100 µM | HT-29 97.3 µM | U-251 65 µM | OVCAR-3 63.4 µM | NCI-H23 83 µM | A498 28.8 µM | NCI/ADR-RES 40.5 µM | Malme-3M > 100 µM | SK-OV-3 > 100 µM | EKVX 75.5 µM | MDA-MB-435 89.9 µM | OVCAR-4 63 µM | UACC-62 81.8 µM | LOX IMVI 77.6 µM | SNB-19 > 100 µM

Nn1c(CCCCCCCCc2nnc(COc3c(O)ccc4ccccc34)n2N)nnc1COc1c(O)ccc2ccccc12
inactive: NCI-H226 > 100 µM | 786-0 99.3 µM | CAKI-1 27.2 µM | HT-29 > 100 µM | U-251 > 100 µM | NCI-H23 > 100 µM | A498 > 100 µM | NCI/ADR-RES > 100 µM | HCC 2998 > 100 µM | Malme-3M > 100 µM | SK-OV-3 > 100 µM | EKVX > 100 µM | MDA-MB-435 > 100 µM | OVCAR-4 59.6 µM | UACC-62 > 100 µM | SNB-19 > 100 µM

O=CN1CCN(CC(O)CN2CCCCC2)CC1 (centres undefined)
inactive: NCI-H226 > 100 µM | 786-0 > 100 µM | HOP-62 > 100 µM | CAKI-1 > 100 µM | HT-29 > 100 µM | U-251 > 100 µM | OVCAR-3 > 100 µM | NCI-H23 > 100 µM | A498 > 100 µM | NCI/ADR-RES > 100 µM | Malme-3M > 100 µM | SK-OV-3 > 100 µM | EKVX > 100 µM | MDA-MB-435 > 100 µM | OVCAR-4 > 100 µM | UACC-62 > 100 µM | LOX IMVI > 100 µM | SNB-19 > 100 µM

COc1ccc(/N=C/N(C)C)c(C)c1
inactive: NCI-H226 11.2 µM | 786-0 13.6 µM | HOP-62 18.3 µM | CAKI-1 35.6 µM | HT-29 5.4 µM | U-251 4.28 µM | OVCAR-3 2.36 µM | NCI-H23 2 µM | A498 18.1 µM | NCI/ADR-RES 44.7 µM | Malme-3M 9.57 µM | SK-OV-3 18.7 µM | EKVX 10.6 µM | MDA-MB-435 6.08 µM | OVCAR-4 9.42 µM | UACC-62 7.08 µM | LOX IMVI 3.15 µM | SNB-19 21.6 µM

COC1CC(C)(NC(C)=O)C2OC(c3ccccc3)OCC2O1 (centres undefined)
inactive: NCI-H226 > 100 µM | 786-0 > 100 µM | HOP-62 > 100 µM | CAKI-1 > 100 µM | HT-29 > 100 µM | U-251 > 100 µM | OVCAR-3 > 100 µM | NCI-H23 > 100 µM | A498 > 100 µM | NCI/ADR-RES > 100 µM | Malme-3M > 100 µM | SK-OV-3 > 100 µM | EKVX > 100 µM | MDA-MB-435 > 100 µM | OVCAR-4 > 100 µM | UACC-62 > 100 µM | LOX IMVI > 100 µM | SNB-19 > 100 µM

Cc1ccc2c(=O)cc(-c3ccc(-c4ccccc4)s3)[nH]c2n1
inactive: NCI-H226 29.1 µM | 786-0 16.1 µM | HOP-62 30.6 µM | CAKI-1 45 µM | HT-29 > 100 µM | U-251 16.4 µM | OVCAR-3 24.8 µM | NCI-H23 22.1 µM | A498 14.2 µM | NCI/ADR-RES > 57.1 µM | Malme-3M > 42.9 µM | SK-OV-3 44.5 µM | EKVX 27.2 µM | MDA-MB-435 5.33 µM | OVCAR-4 38.5 µM | UACC-62 17 µM | LOX IMVI > 48.3 µM | SNB-19 70.1 µM

Clc1ccc2nc3[nH]nc(Cl)c3nc2c1
inactive: 786-0 61.5 µM | HOP-62 53.5 µM | CAKI-1 49.1 µM | HT-29 59.3 µM | U-251 60.7 µM | OVCAR-3 66.8 µM | NCI-H23 48.1 µM | A498 46.2 µM | NCI/ADR-RES 56.2 µM | HCC 2998 38.4 µM | SK-OV-3 41.9 µM | EKVX 16.7 µM | MDA-MB-435 77.8 µM | OVCAR-4 63.2 µM | UACC-62 45.3 µM | SNB-19 45.6 µM

COc1ccc(C(CC(=O)c2ccccc2)C(=O)c2ccc3c(c2)OCO3)cc1 (centres undefined)
inactive: NCI-H226 > 100 µM | 786-0 > 100 µM | HOP-62 > 100 µM | CAKI-1 > 100 µM | U-251 > 100 µM | NCI-H23 > 100 µM | A498 > 100 µM | NCI/ADR-RES > 100 µM | HCC 2998 > 100 µM | Malme-3M 79.3 µM | SK-OV-3 > 100 µM | EKVX > 100 µM | MDA-MB-435 > 100 µM | OVCAR-4 > 10 µM | UACC-62 > 100 µM | SNB-19 > 100 µM

Clc1ccc(/C=C/c2nc(Cl)c(-c3ccc(Cl)cc3)c(Cl)n2)cc1
inactive: NCI-H226 80.9 µM | 786-0 43.8 µM | HOP-62 > 100 µM | CAKI-1 74.8 µM | HT-29 48.9 µM | U-251 40.6 µM | OVCAR-3 > 100 µM | NCI-H23 27.1 µM | A498 50.6 µM | NCI/ADR-RES 68.2 µM | Malme-3M > 100 µM | SK-OV-3 > 100 µM | EKVX 69.8 µM | MDA-MB-435 53.2 µM | OVCAR-4 71.6 µM | UACC-62 > 100 µM | LOX IMVI 86.9 µM | SNB-19 > 100 µM

O=C1CSCC(=O)Nc2ccccc2N1
inactive: NCI-H226 > 100 µM | 786-0 > 100 µM | HOP-62 > 100 µM | CAKI-1 > 100 µM | HT-29 > 100 µM | U-251 > 100 µM | OVCAR-3 > 100 µM | NCI-H23 > 100 µM | A498 > 100 µM | NCI/ADR-RES > 100 µM | Malme-3M > 100 µM | SK-OV-3 > 100 µM | EKVX > 100 µM | MDA-MB-435 > 100 µM | OVCAR-4 > 100 µM | UACC-62 > 100 µM | LOX IMVI > 100 µM | SNB-19 > 100 µM

Clc1ccc(Cc2nc3ccccc3nc2-c2cccc(Cl)c2)cc1
inactive: NCI-H226 20.3 µM | 786-0 1.84 µM | HOP-62 17.8 µM | CAKI-1 2.73 µM | HT-29 2.61 µM | U-251 4.68 µM | OVCAR-3 4.21 µM | NCI-H23 13.5 µM | NCI/ADR-RES 3.1 µM | HCC 2998 1.85 µM | Malme-3M 2.25 µM | SK-OV-3 17.2 µM | EKVX 17.5 µM | MDA-MB-435 1.95 µM | OVCAR-4 1.51 µM | UACC-62 1.86 µM | LOX IMVI 1.95 µM | SNB-19 1.8 µM

O=C(CCCn1ccnc1[N+](=O)[O-])NCCn1cncc1[N+](=O)[O-]
inactive: NCI-H226 > 100 µM | 786-0 > 100 µM | HOP-62 > 100 µM | CAKI-1 > 100 µM | HT-29 > 100 µM | U-251 > 100 µM | OVCAR-3 > 100 µM | NCI-H23 > 100 µM | A498 > 100 µM | NCI/ADR-RES > 100 µM | Malme-3M > 100 µM | SK-OV-3 > 100 µM | EKVX > 100 µM | MDA-MB-435 > 100 µM | OVCAR-4 > 100 µM | UACC-62 > 100 µM | LOX IMVI > 100 µM
